For test [1], the system named is macaque AVPR1a. Briefly: Intact cell saturation binding of 125I-OVTA, macaque AVPR1a CHO clone. The following applies: intact CHO cells, 3 h on ice. Here is the method: (§1) Intact cell saturation binding assays […] Cells were washed four times with 100 μL ice-cold HGH-BSA, solubilized with 100 μL 0.2 N NaOH, and radioactivity quantified with a gamma counter. We also counted aliquots of the used binding medium (i.e., free ^125I-OVTA) to quantify free radioligand CPM directly, eliminating any concerns about differential depletion of ligand due to differential receptor expression levels across species or time. […] Binding affinity for ^125I-OVTA was determined after correcting for non-specific binding by plotting specific bound/free vs. bound using a single-site binding equation (Graphpad Software Inc., La Jolla, CA). […] Binding affinities for ^125I-OVTA at each primate AVPR1a were calculated by subtracting nonspecific binding and then plotting bound ^125I-OVTA vs. free ^125I-OVTA. Because concentrations of ^125I-OVTA were not identical from experiment to experiment, technical replicates within each experiment (n = 3) were normalized and then corrected using the Cheng-Prusoff equation. […] We averaged across technical replicates (n = 3) within each biological replicate and then averaged across the biological replicates (n = 3), normalized the data, and tested for significant differences of best-fit LogEC50 using one-way ANOVA analyses.

Test [2] has as its system marmoset AVPR1a. Briefly: Intact cell saturation binding of 125I-OVTA, marmoset AVPR1a CHO clone. Conditions: intact CHO cells, 3 h on ice. The protocol: as §1
For test [3], the target named is human, marmoset, and macaque AVPR1a. The test is described as follows: Saturation binding of 125I-OVTA, summary over the three primate AVPR1a. The following applies: range over the three species. The protocol:
Intact cell saturation binding assays […] Cells were washed four times with 100 µL ice-cold HGH-BSA, solubilized with 100 µL 0.2 N NaOH, and radioactivity quantified with a gamma counter. We also counted aliquots of the used binding medium (i.e., free ^125I-OVTA) to quantify free radioligand CPM directly, eliminating any concerns about differential depletion of ligand due to differential receptor expression levels across species or time. […] Binding affinity for ^125I-OVTA was determined after correcting for non-specific binding by plotting specific bound/free vs. bound using a single-site binding equation (Graphpad Software Inc., La Jolla, CA).

Test [4] addresses human, macaque, and marmoset OXTR. On the set-up: method as in Taylor et al., 2018. Conditions: range over the three species; ref Taylor et al., 2018; read-out: Affinity (Kd) of 125I-OVTA at human, macaque, and marmoset OXTR; cited from earlier work.
The target in test [5] is T1, human AVPR1a (Homo sapiens, UniProt P37288). Briefly: Intact cell saturation binding of 125I-OVTA, human AVPR1a CHO clone. The protocol:
as §1

For test [6], the system named is macaque AVPR1a. Briefly: Ca2+ mobilization assay, CHO cells expressing macaque AVPR1a. The test is classed as cell-based. The protocol: (§2) Ca^2+ mobilization assays
(§3) . […] . Binding affinities for ^125I-OVTA at each primate AVPR1a were calculated by subtracting nonspecific binding and then plotting bound ^125I-OVTA vs. free ^125I-OVTA. Because concentrations of ^125I-OVTA were not identical from experiment to experiment, technical replicates within each experiment (n = 3) were normalized and then corrected using the Cheng-Prusoff equation. […] Differences in Ca^2+ mobilization potency (EC50) and maximal response to OXT were determined by normalizing OXT-induced (Log M) Ca^2+ responses as a percentage of maximal (100%) AVP-induced Ca^2+ response. We averaged across technical replicates (n = 3) within each biological replicate and then averaged across the biological replicates (n = 3), normalized the data, and tested for significant differences of best-fit LogEC50 using one-way ANOVA analyses. […] .

The next test has as its system untransfected CHO cells. The test is described as follows: Ca2+ response in untransfected CHO cells. The test is classed as cell-based, Chinese hamster.
In test [7] the test system is marmoset AVPR1a. The test is described as follows: Ca2+ mobilization assay, CHO cells expressing marmoset AVPR1a. Format: cell-based. The protocol:
as §2, §3

Test [8] deals with marmoset AVPR1a. Briefly: Intact cell 125I-OVTA competition binding, CHO cells expressing marmoset AVPR1a. The following applies: competition with 125I-OVTA in intact CHO cells, 3 h on ice, ± Std. Error, n = 5. Here is the method: (§4) Intact cell competition binding assays
(§5) Cells were washed four times with 100 µL ice-cold HGH-BSA, solubilized with 100 µL 0.2 N NaOH, and radioactivity was quantified with a gamma counter. Half-maximal inhibitory concentrations (IC50) were determined by plotting bound ^125I-OVTA vs. competitor concentration. IC50 values were then corrected using the Cheng-Prusoff equation with each receptor’s KD for ^125I-OVTA to produce Ki values for the competing ligands.
(§6) Binding affinities for ^125I-OVTA at each primate AVPR1a were calculated by subtracting nonspecific binding and then plotting bound ^125I-OVTA vs. free ^125I-OVTA. Because concentrations of ^125I-OVTA were not identical from experiment to experiment, technical replicates within each experiment (n = 3) were normalized and then corrected using the Cheng-Prusoff equation. […] Differences in Ca^2+ mobilization potency (EC50) and maximal response to OXT were determined by normalizing OXT-induced (Log M) Ca^2+ responses as a percentage of maximal (100%) AVP-induced Ca^2+ response. […] All best-fit data (Ki, EC50, and Ca^2+ maximal responses) were analyzed using the nonlinear least squares curve-fitting capabilities of GraphPad Prism.

Test [9] deals with macaque AVPR1a. The test is described as follows: Intact cell 125I-OVTA competition binding, CHO cells expressing macaque AVPR1a. Conditions: competition with 125I-OVTA in intact CHO cells, 3 h on ice, ± Std. Error, n = 3. Here is the method: as §4, §5, §6
Test [10] addresses T1, human AVPR1a. The test is described as follows: Ca2+ mobilization assay, CHO cells expressing human AVPR1a. The following applies: human AVPR1a in CHO cells; ± Std. Error, n = 6; read-out: Ca^2+ EC50. The test is classed as cell-based. A general note: Calcium assays in cells follow changes in intracellular calcium, usually with a dye or a luminescent sensor.

The values that follow come from paper PMC6820730, “Leu^8 and Pro^8 oxytocin agonism differs across human, macaque, and marmoset vasopressin 1a receptors” (Scientific Reports, 2019).

“And” between values parts separate entries of the source, which are not always exact repeats. Equal entries are not always repeated. Starred links: 1 amine or outer side, 2 acyl side, 3 side chain; linkers in the order of their positions; H or OH if unused. Positions of bridges follow the written chain, without caps; N, C: chain ends. Non-standard residues stand in square brackets, D forms with d. Residues, ends and D or L forms follow the SMILES beside them. Tyr(3-I) = N[C@@H](Cc1ccc(O)c(I)c1)C(=O)O; X1 = O=C(CC1(S[*:2])CCCCC1)[*:1]; Orn = NCCC[C@H](N)C(=O)O

T1 sequence (P37288 whole entry): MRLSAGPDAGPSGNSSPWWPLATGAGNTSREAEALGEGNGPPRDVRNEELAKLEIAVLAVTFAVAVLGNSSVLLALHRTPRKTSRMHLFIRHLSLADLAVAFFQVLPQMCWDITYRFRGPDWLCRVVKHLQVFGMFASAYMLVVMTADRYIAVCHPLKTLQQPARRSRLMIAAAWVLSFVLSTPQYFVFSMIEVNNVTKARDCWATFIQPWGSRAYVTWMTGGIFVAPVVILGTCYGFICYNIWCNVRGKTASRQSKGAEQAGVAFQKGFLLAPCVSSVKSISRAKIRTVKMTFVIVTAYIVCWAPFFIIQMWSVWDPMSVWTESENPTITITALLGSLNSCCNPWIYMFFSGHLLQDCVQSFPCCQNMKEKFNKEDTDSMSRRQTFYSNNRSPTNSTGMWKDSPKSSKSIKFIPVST

The term Kd denotes the equilibrium constant for the complex coming apart. `CC[C@H](C)[C@@H]1NC(=O)[C@H](Cc2ccc(OC)cc2)NC(=O)CC2(CCCCC2)SSC[C@@H](C(=O)N2CCC[C@H]2C(=O)N[C@@H](CCCN)C(=O)N[C@@H](Cc2ccc(O)c(I)c2)C(N)=O)NC(=O)[C@H](CC(N)=O)NC(=O)[C@H]([C@@H](C)O)NC1=O` [^125I-OVTA, ^125I-ornithine vasotocin analog] (Y(Me)ITNCP[Orn][Tyr(3-I)]-NH2; linker N-5 via X1; C-terminus assumed): the Kd with macaque AVPR1a [1] was 0.331 nM; in the test on marmoset AVPR1a [2], 0.944 nM; in test [3], 0.331 to 1.17 nM; in test [4] it was 0.161 to 0.481 nM; on human AVPR1a [5] (human AVPR1a, saturation binding, intact CHO cells, 3 h on ice), 1.17 nM. The molecule also came in with a Bmax at human AVPR1a [5] (human AVPR1a CHO clone, maximal binding of 125I-OVTA) of 6.21 fmol/well.

In general, EC50 refers to the concentration at which the effect is half-maximal. Broadly, the Ki is the dissociation constant of the complex between target and ligand, obtained from inhibition or displacement. In the case of `N=C(N)NCCC[C@H](NC(=O)[C@@H]1CCCN1C(=O)[C@@H]1CSSC[C@H](N)C(=O)N[C@@H](Cc2ccc(O)cc2)C(=O)N[C@@H](Cc2ccccc2)C(=O)N[C@@H](CCC(N)=O)C(=O)N[C@@H](CC(N)=O)C(=O)N1)C(=O)NCC(N)=O` [AVP, arginine vasopressin], the EC50 in the test with macaque AVPR1a [6] (macaque AVPR1a in CHO cells, ± Std. Error, n = 3, read-out: Ca^2+ EC50) was 0.3 nM and 0.31 nM; in the test with marmoset AVPR1a [7] (marmoset AVPR1a in CHO cells, ± Std. Error, n = 3, read-out: Ca^2+ EC50), 0.05 ± 0.05 nM. In addition, in the test with macaque AVPR1a [6] (macaque AVPR1a, F(2,6) = 0.23, p = 0.80), the “Maximal Ca^2+ response, comparison among ligands” value was “equal maximal Ca^2+ responses”. In addition, the “Ca^2+ response” value in the test on untransfected CHO cells (AVP 100 mM to 0.1 nM (so in the source)) was “no Ca^2+ response”. Besides, the “Ca^2+ response of AVP alone, % of the maximal Ca^2+ response” value in the test on marmoset AVPR1a [7] (10 nM AVP alone, marmoset AVPR1a) is recorded as “approximately 80%”. Further, the Ki was 0.9 nM and 0.86 nM in the test with marmoset AVPR1a [8]; 1.2 nM and 1.21 nM in the test on macaque AVPR1a [9].

As for `CC[C@H](C)[C@@H]1NC(=O)[C@H](Cc2ccc(O)cc2)NC(=O)[C@@H](N)CSSC[C@@H](C(=O)N2CCC[C@H]2C(=O)N2CCC[C@H]2C(=O)NCC(N)=O)NC(=O)[C@H](CC(N)=O)NC(=O)[C@H](CCC(N)=O)NC1=O` [Pro^8-OXT] (H-CYIQNCPPG-NH2; disulfide 1-6), on human AVPR1a [10], the EC50 turned out to be 36.2 ± 0.25 nM.

“Lysophosphatidic acid [Lysophosphatidic acid (LPA)]”: in the test with untransfected CHO cells (10 mM (so in the source)), the “Ca^2+ response” value is listed as “do show a Ca^2+ response”.
